These results are taken from patent publication US7147837B2, “Bioactivated diagnostic imaging constrast agents” (Epix Pharmaceuticals, Inc., priority 1996, dated 2006).

Like-named read-outs stand apart in the source and are kept apart here.

The target of data set [1] is T1, human serum albumin (HSA) (Homo sapiens, UniProt P02768). In words: Longitudinal relaxivity (R1) in PBS containing 4.5% HSA. In kind it is physicochemical. As to conditions: for Relaxivity in 4.5% HSA: longitudinal relaxivity R1, 20 MHz, 37° C., PBS pH 7.4 with 4.5% HSA, unit from R1 definition, not in table. From the text: The magnetic resonance phenomena is complex, and different paramagnetic materials alter the MRI signal to various degrees. See R. B. Lauffer, Chemical Reviews (1987), 87, pp. 901–927. A quantitative measurement of the ability of a contrast agent to relax water protons, and consequently affect the MRI image, is provided by its relaxivity. Relaxivity is the dependence of water proton signal intensity upon the concentration of paramagnetic metal ion in solution. Relaxivity is defined as the induced T1 or T2 relaxation per unit time (R1 or R2 in units of mM^−1 sec^−1) observed for a contrast agent, where the concentration of the agent is expressed in a millimolar (mM).
The degree to which an agent has been tuned for maximum relaxivity can be assessed by measuring the relaxivity-bound (R1-bound) in the presence of HSA. This requires measuring the relaxivity of the free chelate (R1-free) as well as the relaxivity (R1-observed) and percent binding of the agent in 4.5% HSA. The R1-observed is a mole fraction weighted average of R1-free and R1-bound: R1-observed=(fraction-free*R1-free)+(fraction-bound*R1-bound) Thus:
(§1) In Table V, the longitudinal relaxivities (R1) were obtained at 20 MHz and 37° C. by determining the concentration dependent relaxation rate (1/T1) of water protons in phosphate buffered saline (PBS, 150 mM NaCl, 10 mM phosphate, pH=7.4) or in PBS solutions containing 4.5% human serum albumin (HSA). The percent bound to HSA was determined by ultrafiltration of a 0.1 mM chelate, 4.5% HSA solution.

Data set [2] concerns alkaline phosphatase. The data set can be described thus: Bioactivation of prodrug by alkaline phosphatase in 4.5% HSA, 1/T1 monitored over time. In kind it is biochemical. As to conditions: for 1/T1: 4.5% HSA, three units alkaline phosphatase, 20 MHz. The method, then: A solution of prodrug 1 (0.3 mM) was prepared in PBS buffer (pH 7) containing 4.5% HSA. […] Three units of alkaline phosphatase (1 unit converts […] of p-nitrophenylphosphate to p-nitrophenol per minute in phosphate buffered saline at 0.1 mM substrate) were added to the 4.5% HSA solution of compound 1 and the 1/T1 was monitored over time.

Data set [3] concerns alkaline phosphatase. The data set can be described thus: T1-weighted MRI scan at 1.0 Tesla of 4.5% HSA solutions with or without alkaline phosphatase. In kind it is biochemical. The protocol: Solutions of 4.5% HSA containing compounds 1 and 8 (0.1–0.2 mM) were prepared. After 15 minutes, an initial T1-weighted MRI scan (FISP-3D, TR=60, TE=5, alpha=60) at 1.0 Tesla of the 4.5% HSA solutions was obtained. […] Three units of alkaline phosphatase were added to half of the HSA solutions containing 1 and additional T1-weighted MRI scans were obtained. After 130 minutes, the solutions that contained 1 and alkaline phosphatase obtained 96% of the signal intensity that for the solutions that contain 8 at equivalent concentrations. […] A 20% increase in signal intensity was observed after addition of alkaline phosphatase to solutions containing 1.

The target of data set [4] is T1, human serum albumin (HSA). The data set can be described thus: Percent bound to HSA by ultrafiltration. Format: binding. As to conditions: for Percent Binding in 4.5% HSA: ultrafiltration, 0.1 mM chelate. The protocol: Protein binding of contrast agents can be assessed in vitro by equilibrium dialysis or ultrafiltration using a physiologically relevant protein concentration in buffer. See, G. N. Rolinson and R. Sutherland, British J. Pharmac. Chemother. (1965), 25, p. 638 (ultrafiltration); D. Glick, Methods Biochem. Anal. (1956), 3 p. 265 (equilibrium dialysis). The protein binding measurements set forth in this application are determined by ultrafiltration using 4.5% (w/w) human serum albumin in phosphate buffered saline (0.15 NaCl, 10 mM phosphate, pH 7.4). Preferably at least 10%, and more preferably at least 50%, and even more preferably at least 80%, and most preferably at least 95%, of an activated protein-binding contrast agent will be bound to the protein under physiologically relevant conditions. In this application, the measurement of percent binding of the contrast agent to HSA has an error of approximately +/−5%. Protein binding to other proteins or to serum can be assessed in a similar fashion.
as §1

In data set [5] the target is T2, HSA (Homo sapiens, UniProt P02768). As to conditions: cited from earlier work.
In data set [6] the target is T2, HSA. The settings on record: cited from earlier work. The source holds these as a separate data set.
The subject of data set [7] is alpha 1-acid glycoprotein (AAG). The settings on record: binding to AAG; cited from earlier work.
For data set [8] the following is noted: cited from earlier work.
The target in data set [9] is T2, HSA. The settings on record: cited from earlier work. The source holds these as a separate data set.

T2 sequence (P02768 25-609): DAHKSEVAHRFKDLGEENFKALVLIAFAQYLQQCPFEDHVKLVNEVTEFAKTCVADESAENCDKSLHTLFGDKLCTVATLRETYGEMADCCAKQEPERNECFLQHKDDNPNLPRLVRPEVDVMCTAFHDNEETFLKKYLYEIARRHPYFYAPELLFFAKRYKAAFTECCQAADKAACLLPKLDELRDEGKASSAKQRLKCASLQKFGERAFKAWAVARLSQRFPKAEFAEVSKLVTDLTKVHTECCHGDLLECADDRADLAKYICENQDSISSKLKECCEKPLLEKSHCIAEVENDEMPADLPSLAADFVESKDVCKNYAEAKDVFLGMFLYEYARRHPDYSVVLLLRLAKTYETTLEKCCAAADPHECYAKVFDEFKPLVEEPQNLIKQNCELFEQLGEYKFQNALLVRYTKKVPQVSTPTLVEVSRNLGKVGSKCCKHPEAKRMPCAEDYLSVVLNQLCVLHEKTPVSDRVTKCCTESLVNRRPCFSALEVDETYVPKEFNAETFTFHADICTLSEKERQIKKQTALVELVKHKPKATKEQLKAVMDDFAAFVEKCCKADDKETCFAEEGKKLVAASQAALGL
T1 sequence (P02768 25-609): as above

`O=C(O)CN(CCN(CC(=O)O)CC(COc1ccc(-c2ccc(OP(=O)(O)O)cc2)cc1)N(CC(=O)O)CC(=O)O)CC(=O)O` (centres unmarked) (Gd complex, metal not drawn) [Compound 1]: the “Relaxivity in 4.5% HSA” value in data set [1] is 15.9 ± 0.2 mM⁻¹ s⁻¹. Moreover, in the data set with alkaline phosphatase [2] (0.3 mM in PBS (pH 7) with 4.5% HSA, before addition of alkaline phosphatase), the “change in 20 MHz proton relaxation rate 1/T1 with time” value is “No change”. The 1/T1 in the data set with alkaline phosphatase [2] (0.3 mM prodrug in PBS (pH 7), time 0 min) is 4.440 s⁻¹; in the data set with alkaline phosphatase [2] (0.3 mM, time 1 min), 4.348 s⁻¹; with alkaline phosphatase [2] (0.3 mM, time 2 min), 4.651 s⁻¹; in the data set on alkaline phosphatase [2] (0.3 mM, time 4 min), 4.878 s⁻¹; in the data set on alkaline phosphatase [2] (0.3 mM, time 6 min), 5.025 s⁻¹; in the data set with alkaline phosphatase [2] (0.3 mM, time 14 min) it was 5.376 s⁻¹. Besides, the 1/T1 with alkaline phosphatase [2] (0.3 mM, time 48 min) is 6.250 s⁻¹; in the data set with alkaline phosphatase [2] (0.3 mM, time 90 min), 6.849 s⁻¹; in the data set on alkaline phosphatase [2] (0.3 mM, time 110 min), 7.042 s⁻¹; with alkaline phosphatase [2] (0.3 mM, time 137 min), 7.299 s⁻¹. In addition, the “approximate expected increase in signal intensity” value in the data set on alkaline phosphatase [2] (corresponding to the change in 1/T1 upon complete activation) was about 24%. Moreover, the “change in 1/T1 from time zero” value with alkaline phosphatase [2] (upon completion of enzymatic activation of 1 to 8) was 2.86 s⁻¹. Further, in the data set on alkaline phosphatase [3] (4.5% HSA, no alkaline phosphatase, during the MRI scans), the “MRI image without alkaline phosphatase” value was “remained as constant dark images”. Further, the “increase in signal intensity” value in the data set with alkaline phosphatase [3] (after addition of alkaline phosphatase) was 20%. Also, the “signal intensity relative to solutions containing 8” value with alkaline phosphatase [3] (with three units alkaline phosphatase, after 130 minutes, equivalent concentrations) is recorded as 96%. Also, the “Percent Binding in 4.5% HSA” value in data set [4] is 47 ± 1%.

For `O=C(O)CN(CCN(CC(=O)O)CC(COc1ccc(-c2ccc(O)cc2)cc1)N(CC(=O)O)CC(=O)O)CC(=O)O` (centres unmarked) [Compound 8], the “relaxivity compared with prodrug” value in data set [1] (bound to HSA, 0.1 mM) is recorded as “higher relaxivity”. Also, the “Relaxivity in 4.5% HSA” value in data set [1] was found to be 26.4 ± 0.4 mM⁻¹ s⁻¹. Moreover, the “brightness of T1-weighted MRI scan” value in the data set on alkaline phosphatase [3] (0.1–0.2 mM in 4.5% HSA, 1.0 Tesla, equivalent concentrations, no enzyme) is reported as “brighter than the solutions containing 1”. Besides, in data set [4] (concentration of 0.1 mM), the “HSA binding affinity compared with prodrug” value was “greater affinity than prodrug 1”. In [4], the “Percent Binding in 4.5% HSA” value worked out at 63 ± 2%.

Regarding `CCn1cc(C(=O)O)c(=O)c2cc(F)c(N3CCNC(C)C3)c(F)c21` (centres unmarked) [NY-198], the “fraction bound to HSA (fb)” value at HSA [5] is recorded as 0.28.

On to `C[C@H](CCC(=O)O)[C@H]1CC[C@H]2[C@@H]3[C@H](O)C[C@@H]4C[C@H](O)CC[C@]4(C)[C@H]3CC[C@]12C` [chenodeoxycholic acid], for which the binding constant on HSA [6] is on record as 5.5×10^4.

In the case of `CN(C)CCCN1c2ccccc2Sc2ccc(Cl)cc21` [chlorpromazine], in data set [7], the Ka is listed as 35.4×10^5.

In the case of `CCn1cc(C(=O)O)c(=O)c2cc(F)c(N3CCNCC3)nc21` [enoxacin], the “fraction bound to HSA (fb)” value at HSA [5] is reported as 0.35.

In the case of `CC1(C)C(/C=C/C=C/C=C/C=C2\N(CCCCS(=O)(=O)O)c3ccc4ccccc4c3C2(C)C)=[N+](CCCCS(=O)(=O)[O-])c2ccc3ccccc3c21` [indocyanine green], the values for the maximal absorbance in data set [8] (before binding to proteins) and in data set [8] (upon binding to proteins in plasma or blood) were 770–780 nm and 790–805 nm, respectively.

Take `O=C(CCCCC(=O)Nc1c(I)cc(I)c(C(=O)O)c1I)Nc1c(I)cc(I)c(C(=O)O)c1I` [iodipamide]: the “binding to HSA” value at HSA [9] is over 98%.

As to `COn1cc(C(=O)O)c(=O)c2cc3c(cc21)OCO3` [miloxacin], at HSA [5], the “fraction bound to HSA (fb)” value is reported as 0.86.

With `CCn1cc(C(=O)O)c(=O)c2ccc(C)nc21` [nalidixic acid], the “fraction bound to HSA (fb)” value at HSA [5] is 0.71.
